Results reported in ChEMBL document CHEMBL1138776, “Identification and characterization of small molecule inhibitors of the calcium-dependent S100B-p53 tumor suppressor interaction” (J Med Chem, 2004).

Columns and labels:
[1] = Concentration required for 50% growth inhibition of primary malignant melanoma C8146A cell lines; assay type: functional, cell-based
Protein S100-B = biological target: T1, Protein S100-B (Homo sapiens, UniProt P04271); assay: Binding to holo-S100B protein
T1 sequence (P04271 whole entry): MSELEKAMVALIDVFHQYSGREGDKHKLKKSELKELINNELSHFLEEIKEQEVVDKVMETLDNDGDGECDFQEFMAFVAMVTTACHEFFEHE

SMILES | Kd (Protein S100-B) [µM] | IC50 [1] [µM]
Cc1cc(C)c(N2C(=O)c3ccc(C(=O)Nc4cc(C(=O)O)cc(C(=O)O)c4)cc3C2=O)c(C)c1 | 120 | 44
CC(C)(C)NC(=O)c1cccc(N2C(=O)c3ccc(C(=O)O)cc3C2=O)c1 | 8.1 | > 100
Cc1c(NS(=O)(=O)c2ccc(NC(=O)CCC(=O)O)cc2)c(=O)n(-c2ccccc2)n1C | 4.5 | > 100

Now from value to compound, other results behind:

Kd (Protein S100-B) [µM] | SMILES | IC50 [1] [µM]
2 | N=C(N)NC(=N)Nc1cccc(Cl)c1Cl | 8
4.5 | N=C(N)NC(=N)Nc1ccc(Cl)cc1C(=O)c1ccccc1 | 12
18.3 | O=C(O)c1cc(N/N=C/c2ccc(-c3ccc(Cl)c(C(=O)O)c3)o2)ccc1Cl | 49
1 | N=C(N)c1ccc(OCCCCCOc2ccc(C(=N)N)cc2)cc1 [PENTAMIDINE] | 1.2
